In assay [1] the test system is Pdx1-Cre×LSL-Kras^G12D×LSL-TP53^R172H+/− (KPC) mice. In words: KPC mouse model of invasive PDAC, survival and endpoint tissue analysis. The conditions noted are these: XP-524 5 mg/kg daily IP and/or anti-PD-1 200 μg. Format: in vivo. From the text:
(§1) Nongenic B6 (Wild Type), P48-Cre×LSL-Kras^G12D (KC), Pdx1-Cre×LSL-Kras^G12D×LSL-TP53^R172H+/− (KPC), and Pdx1-Cre×LSL-Kras^G12D×LSL-TP53^R172H+/+ (KPPC) mice were generated as described previously (24). […] Mice were euthanized at 6 months of age and tissues collected for analysis. […] KPC mice were sacrificed when moribund or showing clear signs of health decline e.g. fur loss, weight loss, or lethargy, or for non-survival studies at the fixed endpoint shown in the number of days after enrollment. For studies involving KPPC mice, animals were enrolled either when developing a 0.5 cm, palpable tumor or at 4 weeks of age. […] For euthanasia, animals were deeply anesthetized with isoflurane until unresponsive to toe tap and/or agonal breathing was observed. Thoracotomy served as the primary method of euthanasia and exsanguination the secondary method. For all mouse studies, mice were age matched within 2 weeks and males and females randomized at a 50:50 ratio.
Using these mice, we first conducted an early intervention study in which mice were allowed to develop overt PDAC for a minimum of 15 weeks, at which point 100% of mice in our colony develop focal PDAC. At this time, mice were then randomized at a 50:50 male to female ratio into one of two treatment groups (N=7/group). […]

Assay [2] has as its system Pdx1-Cre×LSL-Kras^G12D×LSL-TP53^R172H+/+ (KPPC) mice. In words: KPPC mouse model of extremely aggressive PDAC, late intervention. Type of assay: in vivo. The conditions noted are these: 5 mg/kg daily IP.
Text: as §1
We next conducted a late intervention study using the Pdx1-Cre×LSL-Kras^G12D×LSL-TP53^R172H+/+ (KPPC) model of extremely aggressive PDAC. In our colony, KPPC mice have a median survival of 43 days (N=12) and develop extensive PDAC as early as two weeks of age. We, therefore, enrolled mice as described either when they developed a 0.5 cm tumor or at 4 weeks of age and placed them into one of two treatment groups (N=6/group).

Assay [3] has as its system Panc1 cells. In words: Cell viability, MTT assay. Type of assay: cell-based, human. The conditions noted are these: Panc1, increasing concentrations, with or without 1 μM SGC-CBP30, 48 hours. The method, then: (§2) For cell growth assays, a fixed number of serum starved tumor cells were seeded into each well of a 24 well plate to reach 10% confluence, the subsequent percent confluence evaluated every 4 hours until the control group reached 100% confluence. For cell viability assays, 2,000-4,000 cells were seeded into each well of a 96-well plate in serum free DMEM. After 16 hours, media/drug was added and cells cultured for 72 hours. At this time, we added 20 ul of a 5 mg/ml 3-(4,5-Dimethyl-2-thiazolyl)-2,5-diphenyl-2H-tetrazolium bromide (MTT) solution to each well […]. After two hours, media was aspirated and crystals dissolved in DMSO and 570 nm absorbance determined by plate reader.
After 48 hours, we examined changes in cell viability via MTT assay.

Assay [4] concerns Panc1 cells. In words: RNA sequencing and gene set enrichment analysis. Type of assay: cell-based, human. Conditions: Panc1, 1 μM, 24 hours, RNA sequencing. How it is done:
After 24 hours RNA was extracted using the RNeasy Plus Mini Kit (Qiagen, Hilden, Germany) per the manufacturer's instructions. Quality control, sequencing, and data analysis were performed by Novogene.

Assay [5] concerns Panc1 cells. In words: Cell growth assay (percent confluence). Type of assay: cell-based, human. The conditions noted are these: Panc1, 1 μM each drug, until DMSO-treated cells reached 100% confluence. How it is done: as §2
The test system of assay [6] is Panc1 cells. In words: Western blot, Panc1. Format: cell-based, human. How it is done: Cell or tissue lysates were lysed in RIPA buffer (Cell Signaling) followed by sonication. Equal amounts of protein (15-50 μg) were mixed with loading dye, boiled for 8 min, separated on a 4-20% denaturing SDS-PAGE gel and transferred to a PVDF membrane. The membrane was blocked in 5% milk/TBS/0.1% Tween for one hour and incubated with antibodies against pRB, pMEK1, MEK1, pERK1/2, ERK1/2, (Cell Signaling, Danvers, MA), H3K27ac (Active Motif, Carlsbad, CA), KRAS (Novus Bio, Saint Charles, MO), BRD4, EP300 (abcam, Cambridge, MA), or GAPDH (Santa Cruz Biotech, Santa Cruz, CA). The membrane was washed with TBS-0.1% Tween and then incubated with HRP conjugated secondary antibody (Cell Signaling) at room temperature for one hour and rewashed. Protein bands were visualized by an enhanced chemiluminescence method (Thermo Fischer, Waltham, MA) and resolved digitally per the manufacturer's specifications.
(§3) Using these same lysates, we also evaluated the association between BRD4 and EP300/CBP by immunoprecipitation.

The subject of a further assay is BRD4 and EP300/CBP. In words: Immunoprecipitation of BRD4 and EP300/CBP, Panc1. Format: cell-based, human. Conditions: Panc1, 1 μM. How it is done:
For immunoprecipitation, cell lysates were collected using IP buffer (25 mM Tris-HCl pH 7.5, 150 mM NaCl, 1 mM EDTA, 0.1% NP-40 and 5% glycerol) with a protease and phosphatase inhibitory cocktail (Cell Signaling), and cell extracts were incubated overnight with the respective antibodies followed by incubation with protein A or G agarose beads for 4 h at 4° C. After washing 5-7 times with lysis buffer, immunocomplexes were resolved using SDS-PAGE and visualized by western blot. All antibodies were compared with isotype specific IgG controls to affirm specificity. All experiments were performed in triplicate unless otherwise specified.
as §3

Regarding `CCS(=O)(=O)Nc1cc(-c2cn(C)c3c(=O)[nH]ccc23)cc2c1ccn2C(C)(c1ccccn1)c1ccccn1` [XP-524], the median survival post-enrollment in assay [1] is 108 days; in assay [2], 50 days.

On to `Cc1sc2c(c1C)C(c1ccc(Cl)cc1)=N[C@@H](CC(=O)OC(C)(C)C)c1nnc(C)n1-2` [JQ-1], for which the cell viability entry with Panc1 cells [3] is “reduction in cell viability”. Besides, the “KRAS signaling and cell cycle pathways” value in the assay on Panc1 cells [4] is “modest suppression of KRAS and cell cycle pathways”. Besides, the cell growth result in the assay with Panc1 cells [5] was “modest growth suppression”. For the same compound, the “histone acetylation (H3K27ac)” value with Panc1 cells [6] was “compensatory increase in histone acetylation”. Moreover, the “co-precipitation of BRD4 and EP300/CBP” value with BRD4 and EP300/CBP was “modestly reduced co-precipitation of BRD4 and EP300/CBP”.

`COc1ccc(CCc2nc3cc(-c4c(C)noc4C)ccc3n2C[C@H](C)N2CCOCC2)cc1Cl` [SGC-CBP30]: in the assay on Panc1 cells [5], the cell growth entry is reported as “marginal effect on cell growth”.
